These results are taken from the supplement of paper PMC12613149.

A short description of data set [1]: reversed-phase LC retention time (C18, 15 min MeOH gradient); higher = more hydrophobic / later elution.
The nature of data set [2]: collision cross section (TIMS, N2 drift gas) of the primary ion; higher = larger gas-phase ion size.
The mark [3] stands for this setting: ionization mode: ESI+, ion species: [M+H]+.
The mark [4] stands for this setting: ionization mode: ESI-, ion species: [M-H]-.

As for `Clc1cccc(Cl)c1NC1=NCCN1` [Clonidine], the “reversed-phase LC retention time” value in data set [1] (setting [3]) amounted to 6.83 min; in data set [1] (setting [4]), 9.84 min. The collision cross section in data set [2] (setting [3]) was found to be 145.06 Å²; in data set [2] (setting [4]), 145.07 Å².
Turning to `COC(=O)C(c1ccccc1Cl)N1CCc2sccc2C1` (stereo not given) [Clopidogrel], the “reversed-phase LC retention time” value in data set [1] (setting [3]) was 15.4 min. Also, the collision cross section in data set [2] (setting [3]) turned out to be 170.12 Å².
For the molecule `CN/C(=N\[N+](=O)[O-])NCc1cnc(Cl)s1` [Clothianidin], the “reversed-phase LC retention time” value in data set [1] (setting [3]) is 8.59 min; in data set [1] (setting [4]) it was 8.62 min. Further, the collision cross section in data set [2] (setting [3]) was 153.61 Å²; in data set [2] (setting [4]), 150.63 Å².
With `CN1CCN(C2=Nc3cc(Cl)ccc3Nc3ccccc32)CC1` [Clozapine], the “reversed-phase LC retention time” value in data set [1] (setting [3]) was 11.6 min. Further, the collision cross section in data set [2] (setting [3]) worked out at 179.65 Å².
The like results for `CCC[C@H]1CCCCN1` [Coniine] were, in that order, 6.79 min and 129.06 Å².
For `C[C@]12CCC(=O)C=C1CC[C@@H]1[C@@H]2C(=O)C[C@@]2(C)[C@H]1CC[C@]2(O)C(=O)CO` [Cortisone] the same measures were 16.9 min and 181.22 Å².
As to `CN1C(=O)CC[C@H]1c1cccnc1` [Cotinine], the “reversed-phase LC retention time” value in data set [1] (setting [3]) is 3.34 min. This molecule also yielded a collision cross section in data set [2] (setting [3]) of 143.26 Å².
On to `O=c1oc2cc(O)ccc2c2oc3cc(O)ccc3c12` [Coumestrol], for which the “reversed-phase LC retention time” value in data set [1] (setting [3]) is 12.5 min; in data set [1] (setting [4]), 11.7 min. Moreover, the collision cross section in data set [2] (setting [3]) is on record as 156.86 Å²; in data set [2] (setting [4]) it was 156.09 Å².
For `C/C=C/C(=O)N(CC)c1ccccc1C` [Crotamiton], in data set [1] (setting [3]), the “reversed-phase LC retention time” value is 14 min. Besides, the collision cross section in data set [2] (setting [3]) worked out at 144.88 Å².
For `O=S(=O)(O)NC1CCCCC1` [Cyclamate], in data set [1] (setting [4]), the “reversed-phase LC retention time” value came out at 6.16 min. The collision cross section in data set [2] (setting [4]) was 138.05 Å².
For the molecule `O=P1(N(CCCl)CCCl)NCCCO1` (stereo not given) [Cyclophosphamide], the “reversed-phase LC retention time” value in data set [1] (setting [3]) was determined as 10.5 min. Also, the collision cross section in data set [2] (setting [3]) amounted to 147.43 Å².
Take `CC(C1CC1)C(O)(Cn1cncn1)c1ccc(Cl)cc1` (stereo not given) [Cyproconazole_1]: the “reversed-phase LC retention time” value in data set [1] (setting [3]) worked out at 14.4 min. In data set [2] (setting [3]), this molecule displayed a collision cross section of 170.22 Å².
In the case of `CC(C1CC1)C(O)(Cn1cncn1)c1ccc(Cl)cc1` (stereo not given) [Cyproconazole_2], in data set [1] (setting [3]), the “reversed-phase LC retention time” value was 14.6 min. Further, in data set [2] (setting [3]), the collision cross section is listed as 170.04 Å².
Regarding `CC(=O)[C@@]1(O)CC[C@H]2[C@@H]3C=C(Cl)C4=CC(=O)[C@@H]5C[C@@H]5[C@]4(C)[C@H]3CC[C@@]21C` [Cyproterone], the “reversed-phase LC retention time” value in data set [1] (setting [3]) amounted to 14.6 min; in data set [1] (setting [4]), 14.9 min. Besides, the values for the collision cross section in data set [2] (setting [3]) and in data set [2] (setting [4]) were 190.49 Å² and 190.87 Å², respectively.
Turning to `Nc1nc(N)nc(NC2CC2)n1` [Cyromazine], the “reversed-phase LC retention time” value in data set [1] (setting [3]) was 3.4 min. In data set [2] (setting [3]), the collision cross section came out at 134.76 Å².
Take `CCCCCCCCn1sc(Cl)c(Cl)c1=O` [DCOIT]: the “reversed-phase LC retention time” value in data set [1] (setting [3]) is 16.9 min. The collision cross section in data set [2] (setting [3]) was 166.39 Å².
On to `CCN(CC)C(=O)c1cccc(C(=O)O)c1` [DEET carboxylic acid], for which the “reversed-phase LC retention time” value in data set [1] (setting [3]) turned out to be 10.8 min; in data set [1] (setting [4]) it was 8.24 min. Moreover, the collision cross section in data set [2] (setting [3]) is on record as 151.03 Å²; in data set [2] (setting [4]) it was 157.09 Å².
As to `CCN(CC)C(=O)c1cccc(C)c1` [DEET], in data set [1] (setting [3]), the “reversed-phase LC retention time” value came to 13 min. In data set [2] (setting [3]), this molecule had a collision cross section of 142.86 Å².
Take `CC(C)CCCCCCOC(=O)C1CCCCC1C(=O)OCCCCCCC(C)C` (stereo not given) [DINCH]: the “reversed-phase LC retention time” value in data set [1] (setting [3]) was determined as 20.1 min. The same molecule yielded a collision cross section in data set [2] (setting [3]) of 228.01 Å².
As for `O=c1c(-c2ccc(O)cc2)coc2cc(O)ccc12` [Daidzein], the entries for the “reversed-phase LC retention time” value in data set [1] (setting [3]) and in data set [1] (setting [4]) were 11.1 min and 9.78 min, respectively. The collision cross section in data set [2] (setting [3]) is listed as 155.18 Å²; in data set [2] (setting [4]) it was 157.58 Å².
With `CCCCCCCCCCOS(=O)(=O)O` [Decylsulfate], in data set [1] (setting [4]), the “reversed-phase LC retention time” value was found to be 14.9 min. This molecule gave a collision cross section in data set [2] (setting [4]) of 159.61 Å².
For the molecule `CC(C)c1ccc2c(c1)CC[C@H]1[C@](C)(C(=O)O)CCC[C@]21C` [Dehydroabietic acid], in data set [1] (setting [4]), the “reversed-phase LC retention time” value is 16.5 min. Moreover, the collision cross section in data set [2] (setting [4]) was 184.43 Å².
For `CCS(=O)CCSP(=O)(OC)OC` (stereo not given) [Demeton-S-methyl sulfoxide], the “reversed-phase LC retention time” value in data set [1] (setting [3]) amounted to 7.58 min. For the same molecule, in data set [2] (setting [3]), the collision cross section stood at 142.73 Å².
With `C[C@H](CCC(=O)O)[C@H]1CC[C@H]2[C@@H]3CC[C@@H]4C[C@H](O)CC[C@]4(C)[C@H]3C[C@H](O)[C@]12C` [Deoxycholic acid], the “reversed-phase LC retention time” value in data set [1] (setting [4]) amounted to 15.8 min. The collision cross section in data set [2] (setting [4]) was determined as 203 Å².
On to `CCNC(=O)C(C)Oc1cccc2ccccc12` (stereo not given) [Desethyl-napropamide], for which, in data set [1] (setting [3]), the “reversed-phase LC retention time” value came out at 14 min. This molecule also gave a collision cross section in data set [2] (setting [3]) of 159.85 Å².
For `CC(C)(C)Nc1nc(N)nc(Cl)n1` [Desethylterbutylazine] the same measures were 12 min and 144.23 Å².
Take `CNCCCN1c2ccccc2CCc2ccccc21` [Desipramine]: the “reversed-phase LC retention time” value in data set [1] (setting [3]) came to 12.9 min. In data set [2] (setting [3]), this molecule registered a collision cross section of 164.14 Å².
For `Clc1ccc2c(c1)CCc1cccnc1C2=C1CCNCC1` [Desloratadine] the same measures were 11.7 min and 176.94 Å².
Take `CC1(C)O[C@@H]2C[C@H]3[C@@H]4CCC5=CC(=O)C=C[C@]5(C)[C@H]4[C@@H](O)C[C@]3(C)[C@]2(C(=O)CO)O1` [Desonide]: in data set [1] (setting [3]), the “reversed-phase LC retention time” value is 13.6 min. The same molecule showed a collision cross section in data set [2] (setting [3]) of 200.7 Å².
